Patent publication US9682995B2, “Amino-substituted isothiazoles” (BAYER PHARMA AKTIENGESELLSCHAFT, priority 2013, dated 2017)

Tests used:
[1] = target: human kinase Mps-1 (Homo sapiens (Human), UniProt P33981); test: Mps-1 kinase assay (TR-FRET); format: biochemical; conditions: 10 μM ATP; read-out: Mps1 avg (IC50 [mol/l])
Description: The human kinase Mps-1 phosphorylates a biotinylated substrate peptide. Detection of the phosphorylated product is achieved by time-resolved fluorescence resonance energy transfer (TR-FRET) from Europium-labelled anti-phospho-Serine/Threonine antibody as donor to streptavidin labelled with cross-linked allophycocyanin (SA-XLent) as acceptor. Compounds are tested for their inhibition of the kinase activity.
N-terminally GST-tagged human full length recombinant Mps-1 kinase (purchased from Invitrogen, Karslruhe, Germany, cat. no PV4071) was used. As substrate for the kinase reaction a biotinylated peptide of the amino-acid sequence biotin-Ahx-PWDPDDADITEILG (C-terminus in amide form, purchased from Biosyntan GmbH, Berlin) was used.
For the assay 50 nl of a 100-fold concentrated solution of the test compound in DMSO was pipetted into a black low volume 384 well microtiter plate (Greiner Bio-One, Frickenhausen, Germany), 2 μl of a solution of Mps-1 in assay buffer [0.1 mM sodium-ortho-vanadate, 10 mM MgCl2, 2 mM DTT, 25 mM Hepes pH 7.7, 0.05% BSA (w/v), 0.001% Pluronic F-127] were added and the mixture was incubated for 15 min at 22° C. to allow pre-binding of the test compounds to Mps-1 before the start of the kinase reaction. Then the kinase reaction was started by the addition of 3 μl of a solution of 16.7 μM adenosine-tri-phosphate (ATP, 16.7 μM=>final conc. in the 5 μl assay volume is 10 μM) and peptide substrate (1.67 μM=>final conc. in the 5 μl assay volume is 1 μM) in assay buffer and the resulting mixture was incubated for a reaction time of 60 min at 22° C. The concentration of Mps-1 in the assay was adjusted to the activity of the enzyme lot and was chosen appropriate to have the assay in the linear range, typical enzyme concentrations were in the range of about 0.5 nM (final conc. in the 5 μl assay volume). The reaction was stopped by the addition of 5 μl of a solution of TR-FRET detection reagents (100 mM Hepes pH 7.4, 0.1% BSA, 40 mM EDTA, 140 nM Streptavidin-XLent [#61GSTXLB, Fa. Cis Biointernational, Marcoule, France], 1.5 nM anti-phospho(Ser/Thr)-Europium-antibody [#AD0180, PerkinElmer LAS, Rodgau-Jugesheim, Germany]. Instead of the 1.5 nM anti-phospho(Ser/Thr)-Europium-antibody a mixture of 2 nM unlabeled anti-phospho ser/thr-pro antibody MPM-2 [Millipore cat. #05-368] and 1 nM LANCE EU-W1024 labeled anti-mouse IgG antibody [Perkin-Elmer, product no. AD0077] can be used).
The resulting mixture was incubated 1 h at 22° C. to allow the binding of the phosphorylated peptide to the anti-phospho(Ser/Thr)-Europium-antibody. Subsequently the amount of phosphorylated substrate was evaluated by measurement of the resonance energy transfer from the Europium-labelled anti-phospho(Ser/Thr) antibody to the Streptavidin-XLent. Therefore, the fluorescence emissions at 620 nm and 665 nm after excitation at 350 nm was measured in a Viewlux TR-FRET reader (PerkinElmer LAS, Rodgau-Jugesheim, Germany). The “blank-corrected normalized ratio” (a Viewlux specific readout, similar to the traditional ratio of the emissions at 665 nm and at 622 nm, in which blank and Eu-donor crosstalk are subtracted from the 665 nm signal before the ratio is calculated) was taken as the measure for the amount of phosphorylated substrate. The data were normalised (enzyme reaction without inhibitor=0% inhibition, all other assay components but no enzyme=100% inhibition).

[2] = target: human Bub1 (Homo sapiens (Human), UniProt O43683); test: Bub1 kinase assay (TR-FRET); format: biochemical; conditions: 10 μM ATP; read-out: Bub1 avg (IC50 [mol/l])
Description: Bub1-inhibitory activity of compounds of the present invention was quantified employing the Bub1 TR-FRET assay as described in the following paragraphs.
N-terminally His6-tagged recombinant catalytic domain of human Bub1 (amino acids 704-1085), expressed in insect cells (Hi5) and purified by Ni-NTA affinity chromatography and subsequent size exclusion chromatography, was used as enzyme. As substrate for the kinase reaction the biotinylated peptide biotin-Ahx-VLLPKKSFAEPG (C-terminus in amid form) was used which can be purchased e.g. form the company Biosyntan (Berlin, Germany).
For the assay 50 nl of a 100 fold concentrated solution of the test compound in DMSO was pipetted into a black low volume 384 well microtiter plate (Greiner Bio-One, Frickenhausen, Germany), 2 μl of a solution of Bub1 in aqueous assay buffer [50 mM Tris/HCl pH 7.5, 10 mM magnesium chloride (MgCl2), 200 mM potassium chloride (KCl), 1.0 mM dithiothreitol (DTT), 0.1 mM sodium ortho-vanadate, 1% (v/v) glycerol, 0.01% (w/v) bovine serum albumine (BSA), 0.005% (v/v) Trition X-100 (Sigma), 1× Complete EDTA-free protease inhibitor mixture (Roche)] were added and the mixture was incubated for 15 min at 22° C. to allow pre-binding of the test compounds to the enzyme before the start of the kinase reaction. Then the kinase reaction was started by the addition of 3 μl of a solution of adenosine-tri-phosphate (ATP, 16.7 μM=>final conc. in the 5 μl assay volume is 10 μM) and substrate (1.67 μM=>final conc. in the 5 μl assay volume is 1 μM) in assay buffer and the resulting mixture was incubated for a reaction time of 60 min at 22° C. The concentration of Bub1 was adjusted depending of the activity of the enzyme lot and was chosen appropriate to have the assay in the linear range, typical concentrations were in the range of 200 ng/ml. The reaction was stopped by the addition of 5 μl of a solution of TR-FRET detection reagents (0.2 μM streptavidine-XL665 [Cisbio Bioassays, Codolet, France] and 1 nM anti-phosho-Serine antibody [Merck Millipore, cat. #35-001] and 0.4 nM LANCE EU-W1024 labeled anti-mouse IgG antibody [Perkin-Elmer, product no. AD0077, as an alternative a Terbium-cryptate-labeled anti-mouse IgG antibody from Cisbio Bioassays can be used]) in an aqueous EDTA-solution (50 mM EDTA, 0.2% (w/v) bovine serum albumin in 100 mM HEPES pH 7.5).
The resulting mixture was incubated 1 h at 22° C. to allow the formation of complex between the phosphorylated biotinylated peptide and the detection reagents. Subsequently the amount of phosphorylated substrate was evaluated by measurement of the resonance energy transfer from the Eu-chelate to the streptavidine-XL. Therefore, the fluorescence emissions at 620 nm and 665 nm after excitation at 350 nm was measured in a TR-FRET reader, e.g. a Rubystar or Pherastar (both from BMG Labtechnologies, Offenburg, Germany) or a Viewlux (Perkin-Elmer). The ratio of the emissions at 665 nm and at […] was taken as the measure for the amount of phosphorylated substrate. The data were normalised (enzyme reaction without inhibitor=0% inhibition, all other assay components but no enzyme=100% inhibition).

Sequence of human kinase Mps-1 (P33981 whole entry): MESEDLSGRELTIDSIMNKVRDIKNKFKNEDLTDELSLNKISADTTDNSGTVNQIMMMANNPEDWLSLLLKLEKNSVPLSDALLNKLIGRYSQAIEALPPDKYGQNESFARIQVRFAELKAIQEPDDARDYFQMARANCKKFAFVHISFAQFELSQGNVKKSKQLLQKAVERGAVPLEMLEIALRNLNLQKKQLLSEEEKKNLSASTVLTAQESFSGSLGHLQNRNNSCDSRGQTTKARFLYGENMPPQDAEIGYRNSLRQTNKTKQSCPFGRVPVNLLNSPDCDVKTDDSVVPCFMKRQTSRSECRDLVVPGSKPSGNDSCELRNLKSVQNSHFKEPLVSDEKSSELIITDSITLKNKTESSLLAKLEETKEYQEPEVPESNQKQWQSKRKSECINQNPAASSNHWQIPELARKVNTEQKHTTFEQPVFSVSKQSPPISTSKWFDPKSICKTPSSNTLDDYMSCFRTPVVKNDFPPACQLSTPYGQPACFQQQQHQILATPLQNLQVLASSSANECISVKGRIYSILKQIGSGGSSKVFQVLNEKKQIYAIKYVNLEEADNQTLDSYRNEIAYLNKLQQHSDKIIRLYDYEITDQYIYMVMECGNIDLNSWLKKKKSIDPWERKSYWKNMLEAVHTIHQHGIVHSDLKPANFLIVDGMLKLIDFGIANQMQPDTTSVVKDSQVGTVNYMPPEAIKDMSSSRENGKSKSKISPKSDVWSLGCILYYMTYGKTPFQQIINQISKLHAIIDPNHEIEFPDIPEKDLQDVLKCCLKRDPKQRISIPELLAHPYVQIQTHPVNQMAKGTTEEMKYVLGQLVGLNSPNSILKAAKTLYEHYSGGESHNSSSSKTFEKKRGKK
Sequence of human Bub1 (O43683 704-1085): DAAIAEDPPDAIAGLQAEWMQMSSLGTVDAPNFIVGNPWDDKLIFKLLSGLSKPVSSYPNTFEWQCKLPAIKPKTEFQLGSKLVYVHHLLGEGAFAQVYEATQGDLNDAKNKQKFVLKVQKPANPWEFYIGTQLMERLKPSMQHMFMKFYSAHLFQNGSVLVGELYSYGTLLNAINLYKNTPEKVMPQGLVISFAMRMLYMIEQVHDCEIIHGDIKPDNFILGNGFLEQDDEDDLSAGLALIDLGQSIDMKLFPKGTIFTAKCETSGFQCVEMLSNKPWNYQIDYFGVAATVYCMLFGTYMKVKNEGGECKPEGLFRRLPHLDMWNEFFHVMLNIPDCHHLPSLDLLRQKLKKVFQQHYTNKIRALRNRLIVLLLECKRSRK

Row | SMILES | IC50 [1] [µM] | IC50 [2] [µM]
1 | CCc1ccccc1NC(=O)c1c(C)nsc1Nc1cnccn1 [Example 1, N-(2-Ethylphenyl)-3-methyl-5-(pyrazin-2-ylamino)-1,2-thiazole-4-carboxamide] | > 20 | > 20
2 | CCc1ccccc1NC(=O)c1c(C)nsc1Nc1ccnc(C#N)n1 [Example 6, 5-[(2-Cyanopyrimidin-4-yl)amino]-N-(2-ethylphenyl)-3-methyl-1,2-thiazole-4-carboxamide] | > 20 | > 20
3 | CCc1ccccc1NC(=O)c1c(C)nsc1Nc1ccc(C#N)cn1 [Example 7, 5-[(5-Cyanopyridin-2-yl)amino]-N-(2-ethylphenyl)-3-methyl-1,2-thiazole-4-carboxamide] | > 20 | > 20
4 | CCc1ccccc1NC(=O)c1c(C)nsc1Nc1ncccc1C#N [Example 8, 5-[(3-Cyanopyridin-2-yl)amino]-N-(2-ethylphenyl)-3-methyl-1,2-thiazole-4-carboxamide] | > 20 | > 20
5 | CCc1ccccc1NC(=O)c1c(C)nsc1Nc1cc(-n2ccnc2)ncn1 [Example 9, N-(2-Ethylphenyl)-5-{[6-(1H-imidazol-1-yl)pyrimidin-4-yl]amino}-3-methyl-1,2-thiazole-4-carboxamide] | > 20 | > 20
6 | CCc1ccccc1NC(=O)c1c(C)nsc1Nc1ncnc2ccccc12 [Example 10, N-(2-Ethylphenyl)-3-methyl-5-(quinazolin-4-ylamino)-1,2-thiazole-4-carboxamide] | > 20 | > 20
7 | CCc1ccccc1NC(=O)c1c(C)nsc1Nc1nc2ccccc2o1 [Example 11, 5-(1,3-Benzoxazol-2-ylamino)-N-(2-ethylphenyl)-3-methyl-1,2-thiazole-4-carboxamide] | > 20 | 3.8
8 | CCc1ccccc1NC(=O)c1c(C)nsc1Nc1ncnc2sccc12 [Example 12, N-(2-Ethylphenyl)-3-methyl-5-(thieno[2,3-d]pyrimidin-4-ylamino)-1,2-thiazole-4-carboxamide] | > 20 | > 20
9 | CCc1ccccc1NC(=O)c1c(C)nsc1Nc1ncnc2ccsc12 [Example 13, N-(2-Ethylphenyl)-3-methyl-5-(thieno[3,2-d]pyrimidin-4-ylamino)-1,2-thiazole-4-carboxamide] | > 20 | > 20
10 | CCc1ccccc1NC(=O)c1c(C)nsc1Nc1nc2ccccc2s1 [Example 14, 5-(1,3-Benzothiazol-2-ylamino)-N-(2-ethylphenyl)-3-methyl-1,2-thiazole-4-carboxamide] | > 20 | 8.59
11 | CCc1ccccc1NC(=O)c1c(C)nsc1Nc1cc(NC)ncn1 [Example 15, N-(2-Ethylphenyl)-3-methyl-5-{[6-(methylamino)pyrimidin-4-yl]amino}-1,2-thiazole-4-carboxamide] | > 20 | > 20
12 | CCc1ccccc1NC(=O)c1c(C)nsc1Nc1nccc(OC)n1 [Example 16, N-(2-Ethylphenyl)-5-[(4-methoxypyrimidin-2-yl)amino]-3-methyl-1,2-thiazole-4-carboxamide] | > 20 | > 20
13 | CCc1ccnc(Nc2snc(C)c2C(=O)Nc2ccccc2CC)n1 [Example 17, N-(2-Ethylphenyl)-5-[(4-ethylpyrimidin-2-yl)amino]-3-methyl-1,2-thiazole-4-carboxamide] | > 20 | > 20
14 | CCc1ccccc1NC(=O)c1c(C)nsc1Nc1cc(C(F)(F)F)ccn1 [Example 18, N-(2-Ethylphenyl)-3-methyl-5-{[4-(trifluoromethyl)pyridin-2-yl]amino}-1,2-thiazole-4-carboxamide] | > 20 | > 20
15 | CCc1ccccc1NC(=O)c1c(C)nsc1Nc1cnc2ccccc2n1 [Example 19, N-(2-Ethylphenyl)-3-methyl-5-(quinoxalin-2-ylamino)-1,2-thiazole-4-carboxamide] | > 20 | > 20
16 | CCc1ccccc1NC(=O)c1c(C)nsc1Nc1cnc2cc(F)ccc2n1 [Example 20, N-(2-Ethylphenyl)-5-[(6-fluoroquinoxalin-2-yl)amino]-3-methyl-1,2-thiazole-4-carboxamide] | > 20 | > 20
17 | CCc1ccccc1NC(=O)c1c(C)nsc1Nc1nc2ccccc2nc1C [Example 21, N-(2-Ethylphenyl)-3-methyl-5-[(3-methylquinoxalin-2-yl)amino]-1,2-thiazole-4-carboxamide] | > 20 | > 20
18 | COc1ccc(NC(=O)c2c(C)nsc2Nc2cnc3cccc(C)c3n2)cn1 [Example 22, N-(6-methoxypyridin-3-yl)-3-methyl-5-[(8-methylquinoxalin-2-yl)amino]-1,2-thiazole-4-carboxamide] | > 20 | > 20
19 | COc1ccc(NC(=O)c2c(C)nsc2Nc2cnc3cc(Cl)ccc3n2)cn1 [Example 23, 5-[(6-Chloroquinoxalin-2-yl)amino]-N-(6-methoxypyridin-3-yl)-3-methyl-1,2-thiazole-4-carboxamide] | > 20 | > 20
20 | COc1ccc(NC(=O)c2c(C)nsc2Nc2ncccc2C#N)cn1 [Example 36, 5-[(3-Cyanopyridin-2-yl)amino]-N-(6-methoxypyridin-3-yl)-3-methyl-1,2-thiazole-4-carboxamide] | > 20 | 
21 | Cc1nsc(Nc2cc(C#N)ccn2)c1C(=O)Nc1ccc(Oc2ccccc2)nc1 [Example 111, 5-[(4-Cyanopyridin-2-yl)amino]-3-methyl-N-(6-phenoxypyridin-3-yl)-1,2-thiazole-4-carboxamide] |  | > 20
